Experimental data published in publication PMC10993414, “Water Quality Monitoring with the Multiplexed Assay MitoOxTox for Mitochondrial Toxicity, Oxidative Stress Response, and Cytotoxicity in AREc32 Cells” (Environmental Science & Technology, 2024).
Where two headings read alike, the source gives them in different places.

Key:
[1] = system: Nrf2-mediated oxidative stress response pathway (ARE) in AREc32 cells; assay: cells; conditions: Arec32, 24 h, read-out: Oxidative stress response ECIR1.5 (M)
[2] = system: mitochondrial membrane potential (MMP) in AREc32 cells; assay: Disruption of mitochondrial membrane potential (m-MPI red/green ratio), MitoOxTox
[3] = system: AREc32 cells; conditions: for Cytotoxicity Incucyte IC10: human
[4] = system: AREc32 cells
[5] = experimental; ref PhysPropNCCT; cited from earlier work
[6] = system: Nrf2-mediated oxidative stress response pathway (ARE) in AREc32 cells
[7] = system: mitochondrial membrane potential (MMP) in AREc32 cells
[8] = system: AREc32 cells; assay: Cytotoxicity (cell confluency) with IncuCyte S3 live cell imaging, MitoOxTox; conditions: 10% reduction in cell viability; AREc32, 24 h exposure
[9] = system: AREc32 cells; assay: Cytotoxicity with ImageXpress high-content imaging, MitoOxTox; conditions: AREc32, 24 h exposure; for Cytotoxicity ImageExpress IC10: 10% reduction in cell viability; for Cytotoxicity ImageExpress log(IC10 (M)): logarithm of IC10, Corning plates
[10] = system: mitochondrial membrane potential (MMP) in HepG2 cells; conditions: HepG2 cells, 1 h of exposure; read-out: EC50 (decrease of MMP); cited from earlier work
[11] = system: oxidative stress response in AREc32 cells; parameters: method as in Escher et al. 42; conditions: original AREc32 reporter gene assay; ref Escher et al. 42; cited from earlier work
[12] = 10% reduction of MMP, AREc32, 24 h exposure
[13] = logarithm of EC10, AREc32, 24 h exposure
[14] = effect concentration leading to induction ratio 1.5, AREc32, 24 h exposure

Compound: Cc1ccccc1C(=O)Nc1cccc(OC(C)C)c1 [Mepronil]
- EC (induction ratio 1.5) [1]: > 0.000153 M
- MMP inhibition EC10 [2, 12]: 31.2 µM
- MMP inhibition log(EC10 (M)) [2, 13]: -4.51 M
- Cytotoxicity Incucyte IC10 ([3]; 24 h): 58.7 µM
- Cytotoxicity ImageExpress IC10 ([4]; human, 24 h): 72.9 µM
- Cytotoxicity ImageExpress log(IC10 (M)) ([4]; human, 24 h): -4.14 M
- log Kow [L/L] [5]: 3.66 L/L

Compound: Oc1c(Cl)c(Cl)c(Cl)c(Cl)c1Cl [Pentachlorophenol]
- EC (induction ratio 1.5) [1]: 6.91e-05 M
- activation of the oxidative stress response (in words) [6]: activated
- SRcytotoxicity (oxidative stress response) ([6]; human): 6.6
- MMP inhibition EC10 [2]: 11.2 µM
- MMP inhibition log(EC10 (M)) [2]: -4.95 M
- SRcytotoxicity ([7]; human): 6.6
- Cytotoxicity Incucyte IC10 [3]: 67.9 µM
- Cytotoxicity ImageExpress IC10 ([4]; human): 74.4 µM
- Cytotoxicity ImageExpress log(IC10 (M)) ([4]; human): -4.13 M

Compound: CO/C=C(/C(=O)OC)c1ccccc1COc1cccc(C(F)(F)F)n1 [Picoxystrobin]
- Cytotoxicity Incucyte IC10 [8]: 77.7 µM
- Oxidative stress response ECIR1.5 [6, 14]: > 139 µM
- MMP inhibition EC10 [2, 12]: 1.35 µM
- MMP inhibition log(EC10 (M)) [2, 13]: -5.87 M
- SRcytotoxicity [7]: 59.5
- Cytotoxicity ImageExpress IC10 [9]: 80.1 µM
- Cytotoxicity ImageExpress log(IC10 (M)) [9]: -4.10 M

Compound: COC(=O)N(OC)c1ccccc1COc1ccn(-c2ccc(Cl)cc2)n1 [Pyraclostrobin]
- Cytotoxicity Incucyte IC10 [8]: 82.4 µM
- EC (induction ratio 1.5) [1]: > 0.000103 M
- MMP inhibition EC10 [2, 12]: 0.208 µM
- MMP inhibition log(EC10 (M)) [2, 13]: -6.68 M
- SRcytotoxicity ([7]; human): 295.0
- Cytotoxicity ImageExpress IC10 [9]: 61.4 µM
- Cytotoxicity ImageExpress log(IC10 (M)) [9]: -4.21 M
- log Kow [L/L] [5]: 3.99 L/L

Compound: CC(C)(C)c1ccc(CSc2cnn(C(C)(C)C)c(=O)c2Cl)cc1 [Pyridaben]
- EC (induction ratio 1.5) [1]: > 0.000161 M
- MMP inhibition EC10 [2, 12]: 0.00273 µM
- MMP inhibition log(EC10 (M)) [2, 13]: -8.56 M
- Cytotoxicity Incucyte IC10 ([3]; 24 h): 51.4 µM
- Cytotoxicity ImageExpress log(IC10 (M)) [4]: no cytotoxicity
- Cytotoxicity ImageExpress IC10 ([4]; human, 24 h): > 161 µM
- log Kow [L/L] [5]: 6.37 L/L

Compound: C=C(C)[C@H]1Cc2c(ccc3c2O[C@@H]2COc4cc(OC)c(OC)cc4[C@@H]2C3=O)O1 [Rotenone]
- EC (induction ratio 1.5) [1]: > 6.57e-07 M
- MMP inhibition EC10 [2, 12]: 0.00531 µM
- MMP inhibition log(EC10 (M)) [2, 13]: -8.27 M
- SRcytotoxicity ([7]; human): 46
- Cytotoxicity Incucyte IC10 [3]: 0.212 µM
- Cytotoxicity ImageExpress IC10 ([4]; human): 0.242 µM
- Cytotoxicity ImageExpress log(IC10 (M)) ([4]; human): -6.62 M
- log Kow [L/L] [5]: 4.1 L/L

Compound: CCc1nn(C)c(C(=O)NCc2ccc(C(C)(C)C)cc2)c1Cl [Tebufenpyrad]
- Cytotoxicity Incucyte IC10 [8]: 157 µM
- EC (induction ratio 1.5) [1]: > 0.000214 M
- MMP inhibition EC10 [2, 12]: 0.00573 µM
- MMP inhibition log(EC10 (M)) [2, 13]: -8.24 M
- SRcytotoxicity ([7]; human): 33496
- Cytotoxicity ImageExpress IC10 [9]: 192 µM
- Cytotoxicity ImageExpress log(IC10 (M)) [9]: -3.72 M
- log Kow [L/L] [5]: 4.61 L/L

Compound: CON=C(C(=O)OC)c1ccccc1CON=C(C)c1cccc(C(F)(F)F)c1 [Trifloxystrobin]
- EC (induction ratio 1.5) [1]: > 0.000123 M
- MMP inhibition EC10 [2, 12]: 4.11 µM
- MMP inhibition log(EC10 (M)) [2, 13]: -5.39 M
- Cytotoxicity Incucyte log(IC10 (M)) [3]: no cytotoxicity
- Cytotoxicity Incucyte IC10 ([3]; 24 h): > 123 µM
- Cytotoxicity ImageExpress log(IC10 (M)) [4]: no cytotoxicity
- Cytotoxicity ImageExpress IC10 ([4]; human, 24 h): > 123 µM
- log Kow [L/L] [5]: 4.50 L/L

Compound: CCC/C=C/C=C/C(=O)O[C@H]1/C(=C/C(=O)OC)C[C@H]2C[C@H]([C@@H](C)O)OC(=O)C[C@H](O)C[C@@H]3C[C@H](OC(C)=O)C(C)(C)[C@](O)(C[C@@H]4C/C(=C/C(=O)OC)C[C@H](/C=C/C(C)(C)[C@]1(O)O2)O4)O3 [bryostatin 1]
- EC50 [10]: 0.0096 µM

Compound: CC(C)(C)c1cc(O)ccc1O [tBHQ, tert-butylhydroquinone]
- ECIR1.5 ([6]; current study, multiplexed MitoOxTox, AREc32): 3.14 µM
- ECIR1.5 [11]: 1.32 µM

Compound: Oligomycin A
- Oxidative stress response ECIR1.5 [6, 14]: > 12.7 µM
- MMP inhibition EC10 [2, 12]: 0.000235 µM
- EC10 ([2]; MMP, AREc32, 24 h): 0.00024 µM
- MMP inhibition log(EC10 (M)) [2, 13]: -9.63 M

Compound: Tributyltin chloride
- Oxidative stress response ECIR1.5 [6]: > 1.23 µM
- MMP inhibition EC10 [2]: 0.0145 µM
- MMP inhibition log(EC10 (M)) [2]: -7.84 M
